Values of other authors, collected in patent US11396520B2, “Synthesis of the organoarsenical antibiotic arsinothricin and derivatives thereof” (THE FLORIDA INTERNATIONAL UNIVERSITY BOARD OF TRUSTEES, priority 2020, dated 2022).

Legend:
glutamine synthetase = details: stated in words, no test described
Mycobacterium bovis BCG = details: M. bovis BCG; stated in words, no test described
[1] = system: carbapenem-resistant Enterobacter cloacae (CRE); details: WHO ESKAPE pathogen CRE; stated in words, no test described
[2] = system: Gram-positive and Gram-negative bacteria; details: stated in words, no test described

For `NC(CC[AsH](=O)CO)C(=O)O` (stereo not shown) [AST, 2-amino-4-(hydroxymethylarsinoyl)-butanoic acid], the “inhibition of glutamine synthetase” value (glutamine synthetase) is given as “inhibits glutamine synthetase”, the antibiotic activity (Mycobacterium bovis BCG) is given as “effective against” and the antibiotic activity [1] is given as “effective against”. The antibiotic activity [2] was “effective against both Gram-positive and Gram-negative bacteria”.
